Tests used:
[1] = test system: SW872; test: MTS assay, doxorubicin IC50 in parental cell line SW872; format: cell-based; conditions: Homo sapiens
Text: (§1) The dedifferentiated liposarcoma cell line (SW872) is one of the earliest STS model systems that has been extensively studied in preclinical investigations (Dodd 2010, Stratford 2012).
(§2) The SW872-DXR model was derived from the commercial cell line SW872. The resistance to doxorubicin was initiated in 2D cultures, by adding increased concentrations of doxorubicin every 2 weeks, starting from the IC50 concentrations of doxorubicin of the “parental” cell line SW872. The resistance of this cell line was verified by 3-(4,5-dimethylthiazol-2-yl)-5-(3-carboxymethoxyphenyl)-2-(4-sulfophenyl)-2H-tetrazolium (MTS) assay.

[2] = test system: SW872-DXR; test: MTS assay, doxorubicin IC50 in doxorubicin-resistant SW872-DXR; format: cell-based; conditions: Homo sapiens
Text: as §1, §2

IC50 [2]: > 1000 nM
Structure (SMILES): COc1cccc2c1C(=O)c1c(O)c3c(c(O)c1C2=O)C[C@@](O)(C(=O)CO)C[C@@H]3O[C@H]1C[C@H](N)[C@H](O)[C@H](C)O1 [doxorubicin]
IC50 [1]: ~200 nM

Reference: US20240398725A1, “NANOPARTICLES FOR CANCER TREATMENT” (priority 2021, published 2024)
